In brackets after ≈: the same amount, converted by molar mass. Where two headings read alike, the source gives them in different places.
Tests used:
Enterobacter aerogenes [1] = assay: Antimicrobial well method, zone of inhibition; assay type: cell-based; conditions: Klebsiella aerogenes
Method: (§1) Antimicrobial activity was carried out as described previously. Briefly, 20 mL of sterile Mueller Hinton agar (MHA) was poured in the petri plates and kept for solidification. After solidification, the test cultures were swabbed on the top of the media and kept for 10 min to dry. The required concentration (1 mg/well) of synthesized compounds 5a–l was added to each well and left for 30 min at RT for compound diffusion. Ketoconazole (fungi) and streptomycin (bacteria) used for positive controls. The zone of inhibition was recorded in mm and the experiment was repeated twice.

[2] = tested on: Staphylococcus epidermidis; assay: Antimicrobial well method, zone of inhibition; assay type: cell-based
Method: as §1

[3] = tested on: Staphylococcus aureus-MRSA; assay: Antimicrobial well method, zone of inhibition; assay type: cell-based
Method: as §1

Salmonella paratyphi-B [4] = assay: Antimicrobial well method, zone of inhibition; assay type: cell-based
Method: as §1

Klebsiella pneumoniae [5] = assay: Antimicrobial well method, zone of inhibition; assay type: cell-based
Method: as §1

Proteus vulgaris [6] = assay: Antimicrobial well method, zone of inhibition; assay type: cell-based
Method: as §1

Staphylococcus aureus [7] = assay: Antimicrobial well method, zone of inhibition; assay type: cell-based
Method: as §1

Micrococcus luteus [8] = assay: Antimicrobial well method, zone of inhibition; assay type: cell-based
Method: as §1

Salmonella typhimurium [9] = assay: Antimicrobial well method, zone of inhibition; assay type: cell-based; conditions: Salmonella enterica
Method: as §1

Enterobacter aerogenes [10] = assay: Minimum inhibitory concentration (MIC); assay type: cell-based; conditions: Klebsiella aerogenes; Enterobacter aerogenes; read-out: Minimum inhibitory concentration
Method: (§2) The MIC experiment was carried out according to the standard reference methods. Briefly, the required concentrations of synthesized compounds 5a–l were dissolved in DMSO (Dimethylsulfoxide) in concentrations of 500 µg/mL, 250 µg/mL, 125 µg/mL, 62.5 µg/mL, 31.25 µg/mL, 15.6 µg/mL, and […]. An inoculum of 100 µL from each well (96-well plate) was inoculated. For the positive control, ketoconazole (fungi) and streptomycin (bacteria) was used. The MIC values for the tested bacteria were identified as the lowest inhibiting concentration of compound on the agar plate in visual growth.

[11] = tested on: Staphylococcus epidermidis; assay: Minimum inhibitory concentration (MIC); assay type: cell-based; conditions: read-out: Minimum inhibitory concentration
Method: as §2

[12] = tested on: Staphylococcus aureus-MRSA; assay: Minimum inhibitory concentration (MIC); assay type: cell-based; conditions: read-out: Minimum inhibitory concentration
Method: as §2

Salmonella paratyphi-B [13] = assay: Minimum inhibitory concentration (MIC); assay type: cell-based
Method: as §2

Shigella flexneri [14] = assay: Minimum inhibitory concentration (MIC); assay type: cell-based
Method: as §2

Klebsiella pneumoniae [15] = assay: Minimum inhibitory concentration (MIC); assay type: cell-based; conditions: read-out: Minimum inhibitory concentration
Method: as §2

Proteus vulgaris [16] = assay: Minimum inhibitory concentration (MIC); assay type: cell-based; conditions: read-out: Minimum inhibitory concentration
Method: as §2

Staphylococcus aureus [17] = assay: Minimum inhibitory concentration (MIC); assay type: cell-based; conditions: read-out: Minimum inhibitory concentration
Method: as §2

Micrococcus luteus [18] = assay: Minimum inhibitory concentration (MIC); assay type: cell-based; conditions: read-out: Minimum inhibitory concentration
Method: as §2

Salmonella typhimurium [19] = assay: Minimum inhibitory concentration (MIC); assay type: cell-based; conditions: Salmonella enterica, read-out: Minimum inhibitory concentration
Method: as §2

Shigella flexneri [20] = assay: Antimicrobial well method, zone of inhibition; assay type: cell-based
Method: as §1

Malassezia pachydermatis = assay: Antimicrobial well method, zone of inhibition; assay type: cell-based
Method: as §1

Candida albicans = assay: Antimicrobial well method, zone of inhibition; assay type: cell-based; conditions: 1 mg/well
Method: as §1

IMR90 cells = assay: Cytotoxicity on normal cells, MTT; assay type: cell-based; conditions: IMR-90, human normal IMR90 cells, 24 h treatment, read-out: IC50 against IMR90
Method: (§3) The cytotoxic study was carried out as reported previously. Briefly, IMR90, HepG-2, and A549 cells were grown in DMEM (Dulbecco’s Modified Eagle Medium) that contained 10% fetal bovine serum and 1% antibiotics. A total of 15 × 10^3 cells/well were seeded in 96-well plates and incubated under humidified conditions. Cells were treated with varying concentrations of synthesized triazoles for 24 h. After a 24 h treatment, 20 µL aqueous one solution reagent was added to each well and incubated for 3–4 h under a humidified condition. For IMR90 cells, MTT (MTT = 3-(4,5-dimethyl-2-thiazolyl)-2,5-diphenyl-2H-tetrazolium bromide) (5 mg/mL) was added and incubated for 3–4 h in the dark. After incubation, 100 µL of a 10% SDS (Sodium Dodecyl Sulfate) solution (0.01% HCl) was added to each well. The data was taken using an ELISA (enzyme-linked immunosorbent assay) reader at the absorbance of 490 nm for HepG-2 and A549 cells and 570 nm for IMR90 cells. The cell death was calculated using the following formula: Inhibition (%) = ((A − B)/A) × 100 (A—control group, B—treated group).

A549 cells = assay: Cytotoxicity, aqueous one solution reagent; assay type: cell-based; conditions: for IC50: 24 h treatment, read-out: IC50 against A549
Method: as §3

HepG-2 cells = assay: Cytotoxicity, aqueous one solution reagent; assay type: cell-based; conditions: for IC50: read-out: IC50 against HepG-2
Method: as §3

[21] = Homo sapiens, HepG2, 24 h treatment

Compound | melting point [°C] | zone of inhibition at 1 mg/well (Enterobacter aerogenes [1]) [mm] | zone of inhibition at 1 mg/well [2] [mm] | zone of inhibition at 1 mg/well [3] [mm] | zone of inhibition at 1 mg/well (Salmonella paratyphi-B [4]) [mm] | zone of inhibition at 1 mg/well (Klebsiella pneumoniae [5]) [mm] | zone of inhibition at 1 mg/well (Proteus vulgaris [6]) [mm] | zone of inhibition at 1 mg/well (Staphylococcus aureus [7]) [mm] | zone of inhibition at 1 mg/well (Micrococcus luteus [8]) [mm] | zone of inhibition at 1 mg/well (Salmonella typhimurium [9]) [mm] | MIC (Enterobacter aerogenes [10]) [µg/mL] | MIC [11] [µg/mL] | MIC ([12]; Staphylococcus aureus-MRSA) [µg/mL] | MIC (Salmonella paratyphi-B [13]) [µg/mL] | MIC (Shigella flexneri [14]) [µg/mL] | MIC (Klebsiella pneumoniae [15]) [µg/mL] | MIC (Staphylococcus aureus [17]) [µg/mL] | MIC (Micrococcus luteus [18]) [µg/mL] | zone of inhibition at 1 mg/well (Shigella flexneri [20]) [mm] | zone of inhibition at 1 mg/well (Malassezia pachydermatis) [mm] | other results
C[C@@H]([C@@H](c1ccccc1)n1cc(CC2(O)CCCCC2)nn1)N1CCCC1 [5b, (1R,2S)-1-((1-(1-Phenyl-2-(pyrrolidin-1-yl)propyl)-1H-1,2,3-triazol-4-yl)methyl) cyclohexanol] | 137 to 138 | 12 | 10 | 12 | 11 | 10 | 12 | 10 | 13 | 11 |  |  |  |  |  |  |  |  |  |  | 
C[C@@H]([C@@H](c1ccccc1)n1cc(COC(=O)C=Cc2ccccc2)nn1)N1CCCC1 [5c, (1R,2S)-(1-(1-Phenyl-2-(pyrrolidin-1-yl)propyl)-1H-1,2,3-triazol-4-yl)methyl cinnamate] | 140 to 141 | 14 | 15 | 18 | 14 | 12 | 10 | 16 | 16 | 12 | 250 (≈ 600 µM) | 250 (≈ 600 µM) | 125 (≈ 300 µM) | 250 (≈ 600 µM) | 250 (≈ 600 µM) | 500 (≈ 1200 µM) | 125 (≈ 300 µM) | 125 (≈ 300 µM) | 13 |  | MIC (Proteus vulgaris [16]): 500 µg/mL (≈ 1200 µM); MIC (Salmonella typhimurium [19]; Salmonella typhimurium): 500 µg/mL (≈ 1200 µM)
C[C@@H]([C@@H](c1ccccc1)n1cc(COC(=O)c2ccccc2)nn1)N1CCCC1 [5d, (1R,2S)-(1-(1-Phenyl-2-(pyrrolidin-1-yl)propyl)-1H-1,2,3-triazol-4-yl)methyl benzoate] | 129 to 130 | 10 | 13 | 16 | 14 |  |  | 13 | 19 | 12 | 500 (≈ 1280 µM) | 250 (≈ 640 µM) | 125 (≈ 320 µM) | 250 (≈ 640 µM) | 250 (≈ 640 µM) |  | 250 (≈ 640 µM) | 62.5 (≈ 160 µM) | 13 | 10 | MIC (Salmonella typhimurium [19]; Salmonella typhimurium): 500 µg/mL (≈ 1280 µM); zone of inhibition (Candida albicans): 13 mm
COc1ccc(Br)c(C(=O)OCc2cn(C(c3ccccc3)C(C)N3CCCC3)nn2)c1 [5e, (1R,2S)-(1-(1-Phenyl-2-(pyrrolidin-1-yl)propyl)-1H-1,2,3-triazol-4-yl)methyl-2-bromo-5-methoxy benzoate] |  | 10 | 10 | 10 | 10 | 10 | 13 | 12 | 15 | 12 |  |  |  |  |  |  |  |  | 15 | 14 | IC50 (IMR90 cells): > 250 µM; cytotoxic / anticancer activity against A549 cells (A549 cells): promising anticancer activity; IC50 (A549 cells; Homo sapiens): 130 ± 0.65 µM; cytotoxic activity against HepG-2 cells (HepG-2 cells): moderate activity; IC50 (HepG-2 cells; [21]): 164 ± 2.01 µM; zone of inhibition (Candida albicans): 15 mm
CC([C@@H](c1ccccc1)n1cc(CN(C)[C@@H](C)Cc2ccccc2)nn1)N1CCCC1 (stereo partly drawn) [5f, (1R,2S)-N-Methyl-1-phenyl-N-((1-(1-phenyl-2-(pyrrolidin-1-yl)propyl)-1H-1,2,3-triazol-4-yl)methyl)propan-2-amine] | 118 to 119 |  | 17 | 15 | 14 | 18 |  |  | 13 |  |  | 125 (≈ 299 µM) | 250 (≈ 599 µM) | 250 (≈ 599 µM) | 62.5 (≈ 150 µM) | 125 (≈ 299 µM) |  | 250 (≈ 599 µM) | 19 | 12 | 
CC(C(c1ccccc1)n1cc(COC(=O)c2ccc(C(C)(C)C)cc2)nn1)N1CCCC1 [5i, (1R,2S)-(1-(1-Phenyl-2-(pyrrolidin-1-yl)propyl)-1H-1,2,3-triazol-4-yl)methyl 4-tert-butyl benzoate] |  | 14 | 11 | 14 | 12 | 12 |  | 16 | 16 |  | 250 (≈ 560 µM) | 500 (≈ 1120 µM) | 250 (≈ 560 µM) | 500 (≈ 1120 µM) | 250 (≈ 560 µM) | 500 (≈ 1120 µM) | 125 (≈ 280 µM) | 125 (≈ 280 µM) | 14 | 10 | IC50 (IMR90 cells): > 250 µM; cytotoxic / anticancer activity against A549 cells (A549 cells): promising anticancer activity; IC50 (A549 cells; Homo sapiens): 134 ± 1.05 µM; cytotoxic activity against HepG-2 cells (HepG-2 cells): moderate activity; IC50 (HepG-2 cells; [21]): 197 ± 2.34 µM; zone of inhibition (Candida albicans): 12 mm
CCC(C(=O)OCc1cn(C(c2ccccc2)C(C)N2CCCC2)nn1)c1ccccc1 [5l, (1R,2S)-((1-(1-Phenyl-2-(pyrrolidin-1-yl)propyl)-1H-1,2,3-triazol-4-yl)methyl 2-phenylbutanoate] | 127 to 129 |  |  |  |  |  |  |  |  |  |  |  |  |  |  |  |  |  |  | 12 | 
N.N.[Cl][Pt][Cl] [Cisplatin, reference compound] |  |  |  |  |  |  |  |  |  |  |  |  |  |  |  |  |  |  |  |  | IC50 (A549 cells): 16.4 ± 3.19 µM; IC50 (HepG-2 cells; 24 h treatment): 22.1 ± 3.08 µM
CC(=O)N1CCN(c2ccc(OCC3COC(Cn4ccnc4)(c4ccc(Cl)cc4Cl)O3)cc2)CC1 (stereo not shown) [Ketoconazole, reference compound] |  |  |  |  |  |  |  |  |  |  |  |  |  |  |  |  |  |  |  | 26 | zone of inhibition (Candida albicans): 28 mm
[H]/N=C(/N)N[C@H]1[C@H](O)[C@@H](O)[C@H](O[C@@H]2O[C@@H](C)[C@](O)(C=O)[C@H]2O[C@@H]2O[C@@H](CO)[C@H](O)[C@@H](O)[C@@H]2NC)[C@@H](N/C(N)=N\[H])[C@@H]1O [Streptomycin, reference compound] |  | 22 | 26 | 30 | 18 | 20 | 30 | 14 | 26 | 24 | 25 (≈ 43 µM) | 25 (≈ 43 µM) |  | 30 (≈ 51.6 µM) | 6.25 (≈ 10.7 µM) | 25 (≈ 43 µM) | 6.25 (≈ 10.7 µM) | 6.25 (≈ 10.7 µM) | 30 |  | MIC ([12]; Staphylococcus, MRSA): 6.25 µg/mL (≈ 10.7 µM); MIC (Proteus vulgaris [16]): 6.25 µg/mL (≈ 10.7 µM); MIC (Salmonella typhimurium [19]; TYPHIMURIUM): 6.25 µg/mL (≈ 10.7 µM)

— article PMC6803965, “A New Class of β–Pyrrolidino-1,2,3-Triazole Derivatives as β-Adrenergic Receptor Inhibitors: Synthesis, Pharmacological, and Docking Studies” (Molecules, 2019)
